The values below come from ChEMBL document CHEMBL1132776, “(E) -6-(1-alkyloxyiminoalkyl)-5,8-dimethoxy-1,4-naphthoquinones: synthesis, cytotoxic activity and antitumor activity” (2000).

Experiment [1] has as its system A549. The experiment in a line: The compound was evaluated for antiproliferative activity against A549 cell line. The format is functional. As to conditions: Homo sapiens, read-out: ED50 (the source's name).
In experiment [2] the test system is L1210. The experiment in a line: The compound was evaluated for antiproliferative activity against L1210 cell line. The format is functional. As to conditions: Mus musculus, read-out: ED50 (the source's name).
Experiment [3] is filed under the species Mus musculus. Description: Survival ratio (SR) is the number of mice surviving after 80 days among 8 mice. The format is functional.
In experiment [4] the test system is CCRF S-180. The experiment in a line: Percent ratio of treated to control mice after intraperitoneal injection of 1x10E7 S180 cells for antitumor activity was determined. The format is functional, Mus musculus.

Converted amounts (≈) assume the structure as drawn. Some results are limits rather than exact numbers.

Regarding `CCCO/N=C/c1cc(OC)c2c(c1OC)C(=O)C=CC2=O`, the EC50 is greater than 10 µg/mL in experiment [1] and 0.107 µg/mL (≈ 0.353 µM) in experiment [2]. In experiment [3], the Survival ratio was determined as 2. Besides, the T/C in experiment [4] stood at 229%.
The corresponding values for `CCCCCCCCCCCCO/N=C/c1cc(OC)c2c(c1OC)C(=O)C=CC2=O` are greater than 10 µg/mL, 0.311 µg/mL (≈ 0.724 µM), 0 and 119%.
As for `CCCCCCCO/N=C/c1cc(OC)c2c(c1OC)C(=O)C=CC2=O`, the EC50 in experiment [1] is greater than 10 µg/mL; in experiment [2], 0.213 µg/mL (≈ 0.593 µM). Also, in experiment [3], the Survival ratio is 5. The T/C in experiment [4] turned out to be 355%.
The corresponding values for `CCCCCC/C(=N\OCCCCC)c1cc(OC)c2c(c1OC)C(=O)C=CC2=O` are greater than 10 µg/mL, 0.224 µg/mL (≈ 0.539 µM), 5 and 363%.
The corresponding values for `CCCCCCCO/N=C(\CCCCCC)c1cc(OC)c2c(c1OC)C(=O)C=CC2=O` are greater than 10 µg/mL, 0.162 µg/mL (≈ 0.365 µM), 5 and 375%.
With `CCCCCCCCCO/N=C(\CCCCCC)c1cc(OC)c2c(c1OC)C(=O)C=CC2=O`, the results for the EC50 in experiment [1] and in experiment [2] were greater than 10 µg/mL and 1.15 µg/mL (≈ 2.43 µM), respectively. In addition, in experiment [3], the Survival ratio was 0. The T/C in experiment [4] is given as 96%.
For the compound `CCCCCCCCCO/N=C/c1cc(OC)c2c(c1OC)C(=O)C=CC2=O`, the values for the EC50 in experiment [1] and in experiment [2] were greater than 10 µg/mL and 0.19 µg/mL (≈ 0.49 µM), respectively. Further, the Survival ratio in experiment [3] was determined as 5. Besides, the T/C in experiment [4] came to 355%.
For `CO/N=C/c1cc(OC)c2c(c1OC)C(=O)C=CC2=O` the same measures were greater than 10 µg/mL, 0.109 µg/mL (≈ 0.396 µM), 2 and 318%.
As for `CCCCCO/N=C/c1cc(OC)c2c(c1OC)C(=O)C=CC2=O`, the results for the EC50 in experiment [1] and in experiment [2] were greater than 10 µg/mL and 0.175 µg/mL (≈ 0.528 µM), respectively. Besides, the Survival ratio in experiment [3] worked out at 5. For the same compound, in experiment [4], the T/C is listed as 388%.
For `CCCCCC/C(=N\OC)c1cc(OC)c2c(c1OC)C(=O)C=CC2=O` the same measures were greater than 10 µg/mL, 0.192 µg/mL (≈ 0.534 µM), 5 and 323%.
The corresponding values for `CCCCCC/C(=N\OCCC)c1cc(OC)c2c(c1OC)C(=O)C=CC2=O` are greater than 10 µg/mL, 0.166 µg/mL (≈ 0.428 µM), 5 and 369%.
For `CCCCCCCCCCCCO/N=C(\CCCCCC)c1cc(OC)c2c(c1OC)C(=O)C=CC2=O` the same measures were greater than 10 µg/mL, 0.193 µg/mL (≈ 0.376 µM), 2 and 231%.
Take `COc1cc(/C=N/OCc2ccccc2)c(OC)c2c1C(=O)C=CC2=O`: the values for the EC50 in experiment [1] and in experiment [2] were greater than 10 µg/mL and 0.264 µg/mL (≈ 0.751 µM), respectively. In addition, the Survival ratio in experiment [3] is reported as 4. In addition, in experiment [4], the T/C stood at 331%.
The corresponding values for `COc1cccc2c1C(=O)c1c(O)c3c(c(O)c1C2=O)C[C@@](O)(C(=O)CO)C[C@@H]3O[C@H]1C[C@H](N)[C@H](O)[C@H](C)O1` [DOXORUBICIN] are 1.01 µg/mL (≈ 1.86 µM), 0.016 µg/mL (≈ 0.0294 µM), 3 and 315%.
